Laboratory results: US20240408167A1, “COMPOSITION FOR TREATING OCULAR DISEASES CONTAINING PEPTIDE” (Encuragen Inc., priority 2023, published 2024)

What was measured:
[1] = system: apoptotic cells in cornea and conjunctiva; test: Apoptotic cells by TUNEL assay, EDE mouse model; format: in vivo; details: 0.001%, 0.01%, 0.1%
Experimental: The eyes and appendages from each group were excised, fixed in the modified Davidson's solution, and embedded in paraffin, and the tissue sections were TUNEL-stained. In each section, the degree of apoptosis in the cornea and conjunctiva was measured using ZEN (Zeiss, Oberkochen, Germany) and Image J v1.51j8 (NIH, Bethesda, MD, USA) software programs.
As DED progresses, the epithelium of the anterior segment of the eye undergoes pathological deformations, including functional damages and structural changes such as abnormal tear sebum secretion and pathogenic cell death. Apoptotic cells that were present in an equal area of the cornea and conjunctiva of one eye per group were quantified by the TUNEL assay.

rabbit DED model = test: Schirmer tear test (STT), rabbit DED model; format: in vivo
Experimental: The rabbit DED model was induced by locally administrating 0.1% benzalkoniumchloride (BAC) drops (Sigma, St. Louis, MO, USA) twice a day (8 a.m. and 4 p.m.). Before the BAC treatment, the control group (baseline, naive) underwent standard dry eye clinical tests such as the Schirmer tear test (STT), TBUT, and corneal staining score (CSS) test. After the BAC treatment, the induction of dry eye syndrome was confirmed, and the test substance was administered for 10 days while maintaining the induction of dry eye syndrome. […] The test substance was locally applied bis in die (BID) to both eyes.
The tear secretion was measured for 20 seconds by contacting a cotton thread containing phenol red (Zone-Quick™; Oasis Medical, Inc., Glendora, CA, USA) to the conjunctival sac on the lateral canthus of the mouse eye. After measuring the length using a Nikon SMZ1500 microscope, the length substituted to the prescribed formula, and the value was converted to volume. The tear production of the rabbits was measured by a modified Schirmer tear test using Whatman 41 filter paper strips (Tianjin Jingming New Technology Development Co., Ltd., Tianjin, China) on Day 0, Day 5, and Day 10. Eye examination of the rabbits was performed under anesthesia. The anesthesia was performed under sedation by performing intramuscular injection of xylazine (3 mg/kg, Rompun®; Bayer Korea, Korea) and intramuscular injection of 10 mg/kgtiletamine/zolazepam (Zoletil®, Virbac Laboratories, Carros, France). After adding 1 drop of proparacaine HCl 0.5% (Alcaine®, Alcon Korea Ltd., Seoul, Korea), excess tears and eye drops were removed with Weck-cel® […]. The wet length (mm) of the paper strip was read after 5 minutes.

CD4+IFN-γ+T cell = CD4+IFN-γ+T cell density by flow cytometry, EDE mouse model; format: in vivo
Experimental: The cornea, conjunctiva, and each tissue required for analysis were excised with scissors, incised, and shaken with 0.5 mg/mL collagenase type D at 37° C. for 1 hour. After pulverizing the tissue, the resulting mixture was passed through a cell strainer, centrifuged, and resuspended in phosphate-buffered saline containing 1% bovine serum albumin.
In DED, corneal barrier destruction and epithelial cell loss are accompanied by bone marrow and T cell infiltration. Activated T lymphocytes are the primary producers of Th-1 cytokines and interferon (IFN)-γ, which promote cell death at the ocular surface. To evaluate the anti-inflammatory effect of (PEG)-BHD1028 in the EDE mouse model, immune cells that play the role of inflammatory cell surface markers were quantified by flow cytometry with one animal per group.

[2] = Stability of eye drop formulations stored at 40° C., RP-HPLC; format: physicochemical
Experimental: Eye drops using (PEG)-BHD1028 were prepared by setting eye characteristics, pH, osmolarity, and viscosity as important parameters. To adjust the above parameters, various reagents and substances were added to the test formulation, which was stored at 40° C. to confirm the stability of the formulation. In addition, the reagents used in the target preparation were mainly determined by considering the stability of the drug and the suitability of the manufacturing process. The stability of the formulation was determined based on the RP-HPLC analysis data. The shelf life was set as the period before a single impurity reached 1.0 area %, reflecting the mean kinetic temperature (MKT).
The shelf life was calculated based on the stability data reflecting the mean kinetic temperature (MKT). […] Based on this calculation, the lifespan was calculated by multiplying the number of days immediately before the area % of a single impurity reached 1.0% by a factor of 5. The target shelf life was set at 6 months or longer at 25° C., and the stability of the trehalose-only formulation is expected to have a shelf life of about 7 months.

[3] = system: inflammatory cells infiltrated into the stromal layer; test: Immune cell counts by H&E staining, EDE rabbit model; format: in vivo; details: 10 days after the treatment
From the text: The extracted eyes were washed with phosphate-buffered saline (PBS), fixed in the modified Davidson's solution, and embedded in paraffin (Histocore Arcadia, Leica, Wetzlar, Germany). Afterwards, paraffin blocks were sliced into sections of a ˜6 μm thickness, mounted on microscope slides (HistoCore AUTOCUT, Leica, Germany), air dried, and stained with hematoxylin-eosin. The stained tissue slides were imaged, and data were obtained using an optical microscope/digital slide scanner (Axio Scan.Z1, Zeiss, Oberkochen, Germany). Image measurement was performed using ZEN (Zeiss, Germany) and ImageJ (NIH, Bethesda, […], USA) software programs.
The DED inflammatory pathway also includes the infiltration of differentiated (antigen-specific) T cells into the cornea, conjunctiva, and lacrimal gland. To evaluate the anti-inflammatory effect of (PEG)-BHD1028 in the EDE rabbit model, the number of inflammatory cells infiltrated into the stromal layer was measured by H&E staining 10 days after the treatment.

With “NH2-Tyr-Tyr-Phe-Ala-Tyr-His-Pro-Asn-Ile-Pro-Gly-Leu-Tyr-Tyr-Phe-COOH (H-YYFAYHPNIPGLYYF-OH; also: PEGylated, site not given here (mPEG), acetate salt) [(PEG)-BHD1028]” the “antiapoptotic effect (TUNEL) in the cornea and conjunctiva” value [1] was “dose-dependent antiapoptotic effect”, the STT-2 (rabbit DED model; rabbit DED, 0.1% BID, Day 5) was 4.67 ± 0.65 mm and the STT-2 (rabbit DED model; rabbit DED, 0.1% BID, Day 10) was 6.50 ± 0.87 mm. It also gave an STT-2 (rabbit DED model; rabbit DED, 0.2% BID, Day 5) of 3.33 ± 0.51 mm, an STT-2 (rabbit DED model; rabbit DED, 0.2% BID, Day 10) of 7.50 ± 0.99 mm and an STT-2 (rabbit DED model; rabbit DED, 0.4% BID, Day 5) of 4.33 ± 0.45 mm. The STT-2 (rabbit DED model; rabbit DED, 0.4% BID, Day 10) was 6.67 ± 1.02 mm, the STT-2 (rabbit DED model; rabbit, 0.1% group, Baseline (before BAC treatment)) was 6.67 ± 0.96 mm and the STT-2 (rabbit DED model; rabbit, 0.1% group, Day 0 (EDE), before treatment) was 3.00 ± 1.22 mm. For the same substance, the STT-2 (rabbit DED model; rabbit, 0.2% group, Baseline (before BAC treatment)) was 8.50 ± 1.39 mm, the STT-2 (rabbit DED model; rabbit, 0.2% group, Day 0 (EDE), before treatment) was 3.33 ± 1.28 mm and the STT-2 (rabbit DED model; rabbit, 0.4% group, Baseline (before BAC treatment)) was 9.17 ± 1.23 mm. For the same substance, the STT-2 (rabbit DED model; rabbit, 0.4% group, Day 0 (EDE), before treatment) was 3.33 ± 1.22 mm, the “CD4+IFN-γ+T cell density” value (CD4+IFN-γ+T cell; conjunctiva, 0.001%) was 18.96% and the “CD4+IFN-γ+T cell density” value (CD4+IFN-γ+T cell; conjunctiva, 0.01%) was 15.31%. The “CD4+IFN-γ+T cell density” value (CD4+IFN-γ+T cell; conjunctiva, 0.1%) was 9.91%, the “CD4+IFN-γ+T cell density” value (CD4+IFN-γ+T cell; cornea, 0.001%) was 18.62% and the “CD4+IFN-γ+T cell density” value (CD4+IFN-γ+T cell; cornea, 0.01%) was 16.78%. The “CD4+IFN-γ+T cell density” value (CD4+IFN-γ+T cell; cornea, 0.1%) was 11.66%, the “CD4+IFN-γ+T cell density” value (CD4+IFN-γ+T cell; lacrimal gland, 0.001%) was 18.45% and the “CD4+IFN-γ+T cell density” value (CD4+IFN-γ+T cell; lacrimal gland, 0.01%) was 14.60%. The “CD4+IFN-γ+T cell density” value (CD4+IFN-γ+T cell; lacrimal gland, 0.1%) was 10.70%, the formulation stability ([2]; eye drops with sodium EDTA (0.5%), 40° C. for 25 days) was “stability was maintained” and the “formulation stability (impurities)” value ([2]; eye drops with sodium bisulfate (0.03%), Day 7 at 40° C.) was “impurities rapidly increased”. For the same substance, the impurities ([2]; eye drops with sodium hyaluronate 0.1%, 40° C. for 37 days, all impurities) was “less than 1.0 area %”, the “formulation stability and pH, water versus PBS as diluent” value ([2]; eye drops, between the two formulations) was “no significant difference in stability data and pH” and the formulation stability ([2]; formulations including PEG (PEG400, PEG5000, PEG3350) as osmotic reagent) was “considerably decomposed”. The formulation stability ([2]; formulations including salts such as KCl and NaCl, Day 6 at 40° C.) was “considerably decomposed”, the formulation stability ([2]; mannitol, trehalose, or a combination of mannitol and trehalose as osmotic reagent) was “stable” and the “immune cell counts in the corneal stroma” value ([3]; 0.1%) was 399.39±22.22. The “number of immune cells infiltrated into the conjunctiva” value (shortened to “number”) ([3]; 0.1%) was 624.94±29.29, the “immune cell counts in the corneal stroma” value ([3]; 0.2%) was 349.89±17.18 and the “number” value ([3]; 0.2%) was 472.41±39.06. The “immune cell counts in the corneal stroma” value ([3]; 0.4%) was 305.06±13.88 and the “number” value ([3]; 0.4%) was 427.22±29.29.
